Results reported in patent publication US10702538B2, “Ship inhibition to induce activation of natural killer cells” (THE RESEARCH FOUNDATION FOR THE STATE UNIVERSITY OF NEW YORK, priority 2014, dated 2020).
Entries after “also recorded” stand apart in the source; their conditions may differ.

How the values were obtained:
[1] = system: immunoregulatory cells (MDSC, nTreg, neutrophils); experiment: Preliminary studies: immunoregulatory cells in mice after SHIP inhibitor; format: in vivo, wt C57BL/76 mice
Experimental: K118 was administered in water, and in wt C57BL/76 mice.

RMA cells = experiment: Survival of RMA tumor bearing mice; format: in vivo, C57BL/6 mice; settings: 1×10^5 cells; treated two consecutive days each week; vs vehicle treated groups
Experimental: (§1) FIG. 2: C57BL/6 mice received either RM A cells (3AC RMA and Veh RMA groups) or RMA cells transfected with the NKG2D ligand Rae1 (3AC Rae1 and Veh Rae1 groups) and were treated two consecutive days each week starting twelve hours after receiving the tumor. […] The Kaplan-Meyer survival curve represents two independent, pooled, experiments of RMA-Rae1 tumor bearing mice treated with either vehicle (n=10/experiment) or SHIPi (n=10/experiment) or one experiment of RMA tumor bearing mice treated with either vehicle (n=10/experiment) or SHIPi (n=10/experiment).
(§2) To determine if short term administration of SHIPi could have an in vivo functional effect we injected 5×10^5 RMA cells transected with the NKG2D ligand Rae1 into C57BL/6 mice. RMA is a mouse BL/6 derived T cell lymphoma cell line (raucher virus induced cell leukemia cell line); thus a rejection of a tumor graft in BL/6 mice is due to the presence of the Rae1 ligand or due to SHIPi treatment. Mice were treated with SHIPi (33 mg/kg) for two consecutive days and on the third day peritoneal lavage was performed to recover peritoneal contents. […] Finally, showing that there is a survival benefit for mice receiving short term SHIPi, C57BL/6 mice were injected with 1×10^5 RMA or RMA cells transected with the NKG2D ligand Rae1 and then were treated two consecutive days with SHIPi or with vehicle control. […]

NK cells = experiment: IFNγ production assay: ex vivo stimulation of NK cells from SHIPi treated mice; format: in vivo; settings: vs vehicle treated mice; for IFNγ production by NK cells following ex vivo stimulation with anti-NK1.1, anti-NKp46 or anti-NKG2D antibody: mice treated daily 33 mg/kg for two days, 33 mg/kg
Experimental: IFNγ production assay methods: Mice were treated daily with SHIPi (33 mg/kg) for two days. Mice were sacrificed by CO2 toxicity on the third day. Splenocytes were harvested and incubated for four-five hours in six well plates in the presence of Golgiplug (BD) either alone, in plates coated with either anti-NK1.1 (PK136), anti-NKp46 (2PA1.4) or anti-NKG2D (A10) antibody or in uncoated plates but with PMA ([…]) and ionomycin as a positive control. After incubation splenocytes were removed from the plates, Fc Receptors were blocked (2.4G2) and cells were stained with the Invitrogen Aqua Live/Dead cell exclusion dye. NK cells were identified by staining for either NK1.1 (PK136) or NKp46 (29A1.4) and […] (145-2C11). T cells were excluded. Cells were fixed and permeabilized (BD Cytofx/Cytoperm kit), intracellular Fc receptors were blocked (2.4G2) and stained for IFNγ (XMG1.2). Samples were run on a BD Fortessa flow cytometer and analyzed using FloJo software.

[2] = system: peritoneal NK and myeloid cells; experiment: Peritoneal cell populations in RMA-Rae1 tumor bearing mice (flow cytometry of lavage); format: in vivo, C57BL/6 mice; settings: after two days of treatment, vs vehicle
Experimental: FIGS. 6A-6D: SHIPi treated mice have increased peritoneal myeloid and NK cells. FIGS. 6A-D: 5×10^5 GFP expressing RMA-Rae1 cells were injected into C57BL/6 mice. Mice were treated for two days with SHIPi or vehicle alone. Peritoneal lavage was performed on the third day. Cells collected by lavage were stained with anti-NK1.1, anti-CD3ε, anti-CD19, anti-CD11b and anti-GR1 antibodies and were analyzed by flow cytometry. All populations were determined after backgating on singlets and viable cells. NK cells are NK1.1^+CD3ε^−CD19^−, T cells are CD3ε^+NK1.1^−CD19^−, B cells are CD19^+NK1.1^−CD3ε^− and myeloid cells are CD11b^+GR1^+. FIG. 6B: Graph represents pooled data from two independent experiments using at least 4 SHIPi treated mice and 4 vehicle treated mice in each experiment.
To determine if short term administration of SHIPi could have an in vivo functional effect we injected 5×10^5 RMA cells transected with the NKG2D ligand Rae1 into C57BL/6 mice. RMA is a mouse BL/6 derived T cell lymphoma cell line (raucher virus induced cell leukemia cell line); thus a rejection of a tumor graft in BL/6 mice is due to the presence of the Rae1 ligand or due to SHIPi treatment. Mice were treated with SHIPi (33 mg/kg) for two consecutive days and on the third day peritoneal lavage was performed to recover peritoneal contents. […]

[3] = system: RMA cells transfected with the NKG2D ligand Rae1; experiment: Survival of RMA-Rae1 tumor bearing mice; format: in vivo, C57BL/6 mice; settings: 1×10^5 cells; treated two consecutive days each week; vs the other three groups
Experimental: as §1, §2

RMA-Rae1 cells = experiment: In vivo rejection of GFP expressing RMA-Rae1 tumor cells, peritoneal lavage and flow cytometry; parameters: species or system C57BL/6 mice; settings: listed as SHIPi
Experimental: FIG. 4A; 5×10^5 GFP expressing RMA-Rae1 cells were injected into C57BL/6 mice. Mice were treated with either SHIPi or vehicle for two days. Peritoneal lavage was performed on the third day and cells collected by lavage were analyzed by flow cytometry. Flow cytometry plots indicated GFP positive cells after removal of dead cells and non-singlets via electronic gating. FIG. 4B: Graph represents poled data from two independent experiments using at least 4 SHIPi treated mice and 4 vehicle treated mice in each experiment.
FIG. 5A: 5×10^5 GFP expressing RMA-Rae1 cells were injected into C57BL/6 once or RAG1^−/− mice. Mice were treated with either SHIPi or vehicle for two days. Peritoneal lavage was performed on the third day and cells collected by lavage were analyzed by flow cytometry. Flow cytometry plots indicated GFP positive cells after removal of dead cells and nom-singlets via electronic gating. FIG. 5B: Graph summarizes data from 5 SHIPi treated C57BL/6 mice, 5 SHIPi treated RAG1^−/− mice, 5 vehicle treated C57BL/6 mice, and 5 vehicle treated RAG1^−/− mice.
To determine if short term administration of SHIPi could have an in vivo functional effect we injected 5×10^5 RMA cells transected with the NKG2D ligand Rae1 into C57BL/6 mice. RMA is a mouse BL/6 derived T cell lymphoma cell line (raucher virus induced cell leukemia cell line); thus a rejection of a tumor graft in BL/6 mice is due to the presence of the Rae1 ligand or due to SHIPi treatment. Mice were treated with SHIPi (33 mg/kg) for two consecutive days and on the third day peritoneal lavage was performed to recover peritoneal contents. […] Finally, showing that there is a survival benefit for mice receiving short term SHIPi, C57BL/6 mice were injected with 1×10^5 RMA or RMA cells transected with the NKG2D ligand Rae1 and then were treated two consecutive days with SHIPi or with vehicle control. This was repeated each week such that mice received treatment or vehicle twice a week with five days rest in between each treatment. Treatment start days were spaced a week apart.

SHIP1 = target: T1, SHIP1 (Homo sapiens, UniProt Q92835); experiment: SHIP1 inhibitor activity; format: biochemical; settings: compared with 3AC
T1 sequence (Q92835 1-1189): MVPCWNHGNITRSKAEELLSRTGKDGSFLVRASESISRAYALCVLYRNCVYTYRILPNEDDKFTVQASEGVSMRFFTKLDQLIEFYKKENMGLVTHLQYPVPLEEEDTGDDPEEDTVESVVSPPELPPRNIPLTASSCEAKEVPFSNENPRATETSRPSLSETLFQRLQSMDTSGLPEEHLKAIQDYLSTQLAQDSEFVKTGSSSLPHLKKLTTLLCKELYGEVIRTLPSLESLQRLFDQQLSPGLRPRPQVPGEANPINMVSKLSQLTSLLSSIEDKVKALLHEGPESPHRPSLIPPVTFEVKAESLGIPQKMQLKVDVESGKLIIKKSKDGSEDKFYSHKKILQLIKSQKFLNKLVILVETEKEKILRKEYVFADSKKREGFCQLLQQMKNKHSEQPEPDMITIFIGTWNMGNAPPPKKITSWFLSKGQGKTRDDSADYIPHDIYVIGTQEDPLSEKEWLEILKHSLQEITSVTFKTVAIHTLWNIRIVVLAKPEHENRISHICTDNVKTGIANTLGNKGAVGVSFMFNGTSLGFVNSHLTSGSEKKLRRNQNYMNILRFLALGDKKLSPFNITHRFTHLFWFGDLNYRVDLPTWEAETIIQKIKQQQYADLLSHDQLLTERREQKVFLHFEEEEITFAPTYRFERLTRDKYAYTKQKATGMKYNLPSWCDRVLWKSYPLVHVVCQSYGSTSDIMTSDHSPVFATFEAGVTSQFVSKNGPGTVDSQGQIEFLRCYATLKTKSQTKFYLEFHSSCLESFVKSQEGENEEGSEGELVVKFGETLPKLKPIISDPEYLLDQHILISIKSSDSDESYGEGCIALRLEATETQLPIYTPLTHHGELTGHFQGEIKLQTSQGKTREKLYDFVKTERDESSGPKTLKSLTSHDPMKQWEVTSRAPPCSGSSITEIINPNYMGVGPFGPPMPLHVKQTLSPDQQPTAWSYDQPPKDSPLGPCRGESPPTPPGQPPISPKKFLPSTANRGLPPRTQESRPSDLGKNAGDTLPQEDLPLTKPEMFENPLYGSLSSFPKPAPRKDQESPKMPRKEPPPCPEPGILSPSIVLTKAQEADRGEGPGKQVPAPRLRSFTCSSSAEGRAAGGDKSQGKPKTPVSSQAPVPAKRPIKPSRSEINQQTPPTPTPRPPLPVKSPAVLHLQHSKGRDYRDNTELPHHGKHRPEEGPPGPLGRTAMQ

[4] = spleen, orally at 10 mg/kg in water

Row | SMILES | Neutrophil numbers ([1]; intraperitoneal injection) | Survival of RMA tumor bearing mice (RMA cells) | IFNγ production by NK cells following ex vivo stimulation with anti-NK1.1, anti-NKp46 or anti-NKG2D antibody (NK cells) | IFNγ production by NK cells following ex vivo stimulation with anti-NK1.1, anti-NKp46 or anti-NKG2D antibody (NK cells; listed as SHIPi) | IFNγ production by NK cells unstimulated or stimulated with PMA and ionomycin (NK cells; mice treated two days) | Peritoneal myeloid cells (CD11b+GR1+) [2] | Numbers of NK cells in the peritoneal cavity ([2]; listed as SHIPi) | Survival of RMA-Rae1 tumor bearing mice [3] | Tumor burden (GFP positive RMA-Rae1 cells in peritoneal lavage) (RMA-Rae1 cells; C57BL/6 mice, 5×10^5 cells, 33 mg/kg two consecutive days, lavage on third day, vs vehicle, 33 mg/kg) | Protection against RMA-Rae1 tumor in mice lacking B and T cells (RMA-Rae1 cells; RAG1−/− mice (printed RAKG−/−), two days treatment) | Protection against RMA-Rae1 tumor after in vivo depletion of NK cells (RMA-Rae1 cells; pretreated with anti-NK1.1 antibody PK136 200 ug 24 hours before tumor injection, vs isotype control antibody) | Frequency of natural T regulatory cells (nTreg, CD4+CD25+FoxP3+) ([1]; mesenteric lymph node (mLN), orally at 10 mg/kg in water) | Neutrophil numbers ([1]; orally at 10 mg/kg in water) | Frequency of myeloid derived suppressor cells (MDSC) expressing Gr1 and Mac1 [1, 4] | Frequency of natural T regulatory cells (nTreg, CD4+CD25+FoxP3+) [1, 4] | SHIP1 inhibitor activity relative to 3AC (SHIP1) | Water solubility (Water solubility)
1 | CC(C)CCC[C@@H](C)[C@H]1CC[C@H]2[C@@H]3CCC4C[C@H](N)CC[C@]4(C)[C@H]3CC[C@]12C (stereo partly drawn) [3AC, 3 α-aminocholestane] | increased neutrophil numbers | no significant survival difference | significantly increased IFNγ production; also recorded: significantly increased amounts of IFNγ | significantly increased IFNγ | do not see a significant difference | increased | significantly increased numbers of NK cells | significantly increased survival | significantly reduced tumor burden; also recorded: increased tumor rejection | retained protection; also recorded: not due to B or T cells | protection is significantly reduced |  |  |  |  |  | 
2 | C[C@@]12CCC[C@H]1[C@@H]1CC[C@H]3C[C@@H](N)CC[C@]3(C)[C@H]1CC2.Cl [K118, 3β-amino-5α-androstane hydrochloride] |  |  |  |  |  |  |  |  |  |  |  | Significant increases | trend for increased neutrophil numbers | significant increase | Significant increases | comparable SHIP1 inhibitor activity | water-soluble
